In patent publication US8119839B2, “Carboxylic acid and antidepressant composition containing the same as active ingredient” (Yamada Apiculture Center, Inc., priority 2007, dated 2012):

How the values were obtained:
Type in all cases: in vivo, mouse
[1] = test system: ovariectomy model mice; assay: Forced swimming test, modified (Test Example 2); settings: oral for 14 days; for Immobility Time (second) Mean: 2 hours after last dose, 2nd minute to 4th minute, mean of 6 animals; for antidepressant effect: conclusion from Table 1 and FIG. 11
Procedure: Test Example 1 was partly modified as below, and a forced swimming test was performed to evaluate an antidepressant effect using the compounds (DDA-7 and DDA-14 to DDA-16) prepared in Preparation Examples 3 to 6 as test compounds. Regarding DDA-14 and DDA-15, a naturally occurring racemic form thereof has been reported, and thus, similarly to the mixture ratio by weight thereof, DDA-14 and DDA-15 were mixed at the ratio of 3:1 and prepared (2E,9S+9R)-9-hydroxy-2-decenoic acid (racemic form).
The experimental animals (ovariectomy model mice), to which each test compound was administered for 14 days (the first day of the administration was the following day after the day the ovaries were removed), were forced to swim. A 0.32 mg amount of compound DDA-7, 0.29 mg and 0.088 mg of DDA-14 and DDA-15, respectively, and 0.29 mg of DDA-16 were each individually dissolved in 80 ml of ion exchange water for administration. On the 14th day from the day each test compound administration was commenced, and 2 hours after the test compound was orally administered, each of the experimental animals was placed into a water tank, and the swimming time was measured for 10 minutes (test group). As a control experiment, the same procedure was performed as above, except that distilled water for injection was orally administered in place of the test compounds to each of the experimental animals (ovariectomy model mouse) in an amount of 0.1 ml per 10 g of body weight (control group).
The ten-minute swimming time was divided into one-minute periods to conduct analysis.

[2] = test system: ovariectomy model mice; assay: Forced swimming test (Test Example 1)
Procedure: A forced swimming test has been widely used in the preclinical assessment of the antidepressant effect, and clinically effective antidepressants are known to shorten the immobility time (Porsort et al., Nature, 266, 730-732, 1977).
Therefore, the D4-II-3E-4 fraction ((2E)-9,10-dihydroxy-2-decenoic acid) prepared in Preparation Example 1 was administered to the animal model to undergo a forced swimming test (Nature, 266:730-732, 1977), and the antidepressant effect of the compound was evaluated.
ICR female mice (9 weeks old; weight: 29 to 33 g) were used as experimental animals. All of the mice were group-housed (10 mice per cage), and the feed and white flake bedding were exchanged once per week. The surgery to remove the ovaries was performed according to the following method.
Under pentobarbital anesthesia (65 mg/kg, i.p.), a 5 mm incision was made in the dorsal abdomen of a mouse, and the ovaries was temporarily exposed to the outside of the body. After ligation between the ovaries and uterus end (i.e. oviducts), the ovaries were dissected. Thereafter, the oviducts were promptly returned to the intraperitoneal cavity, and the abdominal wall and the skin were sutured.
A 0.25 mg amount of the D4-II-3E-4 fraction (a freeze-dried product) prepared in Preparation Example 1 was dissolved in 50 ml of ion exchange water to prepare a suspension. […]
Water at a temperature of 25° C. was introduced into a clear measuring cylinder made of polycarbonate (inner diameter: 10 cm; height: 25 cm) so that the water surface level was adjusted to 10 cm from the bottom. Each mouse was forced to swim for 6 minutes while being recorded by a high-sensitivity video system. Thereafter, the recorded image was observed, and by means of an event recorder, the time (in seconds) during which the mouse was floating in an immobile state was measured (an analysis was made for the duration of the 4 minutes from the second minute onward).

[3] = test system: ovariectomy model mice; assay: Uterus weight measurement after forced swimming test (Test Example 1); settings: dose that shortens the immobility time, wet weight, FIG. 9
Procedure: After conducting the forced swimming test (after completing the observation of the immobility time), an overdose of pentobarbital (100 mg/kg or more) was administered to each of the mice to cause them to stop breathing, and the mice were sacrificed. Then, the uterus was collected from each of the mice through an incision in the abdomen. The collected uterus was spread onto a filter paper, and after the serosa and blood vessel adhering to the uterus were removed, the weight of the uterus was promptly measured on a wet basis with an analytical balance.

## CC(=O)OCCCC/C=C/C(=O)O [DDA-16, (2E)-7-acetoxy-2-heptenoic acid]
[1]
  Immobility Time (second) Mean: 87.14 s
  antidepressant effect: exhibit an antidepressant effect

## CC(O)CCCCC/C=C/C(=O)O (racemic) [DDA14 + DDA15, (2E,9S+9R)-9-hydroxy-2-decenoic acid]
[1]
  Immobility Time (second) Mean: 98.82 s
  antidepressant effect: exhibit an antidepressant effect

## O=C(O)/C=C\CCCCC[C@@H](O)CO [DDA-7, (2Z,9R)-9,10-dihydroxy-2-decenoic acid]
[1]
  Immobility Time (second) Mean: 80.14 s
  antidepressant effect: exhibit an antidepressant effect

## O=C(O)C=CCCCCCCCO [10-hydroxydecenoic acid, reference compound]
[2]; oral 70, 140, 210 mg/kg/day, FIG. 10
  antidepressant effect: does not exhibit an antidepressant effect

## O=C(O)/C=C/CCCCCC(O)CO (stereo not shown) [D4-II-3E-4 fraction, (2E)-9,10-dihydroxy-2-decenoic acid]
[2]; 0.25 mg in 50 ml water, 0.1 ml per 10 g body weight orally once a day for 2 weeks, 4 minutes from the second minute onward, FIG. 8
  immobility time compared with control group: significantly shorter
[2]; oral, once a day for 2 weeks, conclusion from FIG. 8
  antidepressant effect: exhibits an antidepressant effect
[3]
  uterus weight compared with control group: a difference in the uterus weights was not recognized
